Assay results published in US20210386709A1, “COMPOSITIONS AND METHODS FOR SUPPRESSING MSUT2” (United States Government As Represented By The Department …, priority 2020, published 2021).
Several values for one entry are separate records, joined by “and”; a condition that tells them apart may be missing. Identical values can stand only once.

What was measured:
GST-MSUT2 = molecular target: T1, GST-MSUT2 (Homo sapiens, UniProt Q6PJT7); test: Alpha Screen assay of biotinylated poly(A) RNA:GST-MSUT2 binding; conditions: by Alpha assay
T1 construct: Targeted construct consisted of the c-terminal end (dark blue and amino acids 601-736) of MSUT2; made in house; host or cells: E. coli BL21 (DE3)
T1 sequence (Q6PJT7 601-736): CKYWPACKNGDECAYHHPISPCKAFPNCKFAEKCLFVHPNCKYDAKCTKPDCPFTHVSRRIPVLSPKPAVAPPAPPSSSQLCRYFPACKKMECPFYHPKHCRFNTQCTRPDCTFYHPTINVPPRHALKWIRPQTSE
Description: (§1) Alpha Screen Assay. Samples were set up in 384 well Perkin Elmer white opaque-bottom plates (PE06). A total reaction volume of […] was plated in 384 format using a CyBio Well Vario (6 μL of donor beads (10 μg/mL), 3 μL biotinylated RNA (250 nM), 3 μL GST-MSUT2 protein (250 nM) per well). 50 nL of compounds were transferred to wells via CyBio Vario equipped with Pin Tool. This mixture was incubated at room temperature for 30 minutes away from light. Next 3 μL of acceptor beads (1.25 μg/mL) was added. Plates were incubated at room temperature away from light for 60 minutes and subsequently read on a Perkin Elmer EnVision multimode microplate reader equipped with stackers using a standard 384-well Alpha Assay software protocol.
Results. Alpha Screen design and underlying principle. Alpha Screen technology relies on donor beads, coated with a hydrogel excitable by 680 nm, brought within close proximity to an acceptor bead leading to light emission and detection. In this assay, streptavidin coated donor beads tightly bind to biotinylated-poly(A) RNA while the glutathione-coated acceptor bead binds to GST-tagged MSUT2 protein. […] When this interaction is blocked by an inhibitor, the proximity threshold for donor and acceptor beads is not met, singlet oxygen transference cannot occur, and light is not emitted by the acceptor bead (FIG. 1a).
Identification and validation of MSUT2 inhibitory compounds from NIHCC library. The single-point primary screen was conducted in duplicate and utilized the FP assay conditions determined herein (e.g., 125 nM MSUT2 RNABP and 10 nM FAM-RNA probe) with 10 μM library compounds added in a 96-well format. […] Compound specificity was empirically tested by counter screening against PABPN1, a regulator of the length of mRNA poly(A) tails (Apponi, L. H. et al. Hum Mol Genet 19, 1058-1065, (2010); and Benoit, B. et al. Dev Cell 9, 511-522, (2005)). IC50 of each of the previous 8 compounds was determined for PABPN1 using fluorescence polarization (FIG. 11), and a specificity ratio determined (Table 3). An Alpha Screen (AS) assay was developed as an orthogonal screen. Briefly, in this screen, biotinylated RNA binds streptavidin-coated donor beads, while GST-MSUT2 ZF binds glutathione-coated acceptor beads. […] Toxicity of these compounds in a HEK cell model was determined using a standard Promega Cell Titer Glo assay.
Alpha Screen Assay. […] The plate was then incubated again at room temperature away from light for 60 minutes and subsequently read on a Perkin Elmer EnSight multimode microplate reader using a standard 96-well Alpha Assay protocol.

PABPN1 = molecular target: T2, PABPN1 (Homo sapiens, UniProt Q86U42); test: Alpha Screen selectivity screen against PABPN1; format: binding; conditions: Alpha Screen dose response IC50s
T2 construct: made in house; host or cells: E. coli BL21 (DE3)
T2 sequence (Q86U42 1-306): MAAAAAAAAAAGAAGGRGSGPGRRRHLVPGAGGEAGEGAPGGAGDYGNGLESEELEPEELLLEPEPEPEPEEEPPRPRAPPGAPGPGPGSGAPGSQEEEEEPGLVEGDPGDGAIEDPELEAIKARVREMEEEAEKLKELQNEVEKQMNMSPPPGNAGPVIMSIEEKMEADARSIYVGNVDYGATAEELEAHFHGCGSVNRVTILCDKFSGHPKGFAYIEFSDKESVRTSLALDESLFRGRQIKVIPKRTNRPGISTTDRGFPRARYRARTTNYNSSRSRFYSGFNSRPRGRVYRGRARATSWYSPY
Description: FIGS. 6A-B show the Selectivity screen. Compounds were screened by Alpha Screen (FIG. 6A) for MSUT2 and PABPN1 (FIG. 6B) dose response. IC50s indicated.
as §1
Screening of the Spectrum Collection. […] The hit window consisted of those compounds 7 standard deviations from the mean (FIG. 2a). In follow up dose-response testing, 11 of the 20 initial hits were validated and moved forward to further validation studies (FIG. 3). Unbound fluorescein-labeled RNA rapidly rotates in solution compared to MSUT2-bound. […] These four compounds were tested for an effect on cell viability using a HEK-cell model. […]

HEK-293 cells = test: Cell viability, Promega Cell Titer Glo
Description: Cell culture and cytotoxicity screen. […] Cell viability was assessed as using Promega Cell Titer Glo (Promega G7570) per manufacturer protocol. Briefly, HEK-293 cells were grown to 70% confluence in a 96 well plate were treated with indicated concentrations of compounds and incubated for 72 hours at 37° C. Plates were read for luminescence on Perkin Elmer Enspire Alpha.
Cell viability was assessed. Briefly, HEK-293 cells grown to 70% confluence in a 96 well dish were treated with varying concentrations of compound (final concentration of 2% DMSO) and incubated for 72 hours. Next, Promega Cell Titer Glo assay was used to assess viability per manufacturer instructions (Promega G7570).

Ki (GST-MSUT2): 1580 nM
fold selectivity for MSUT2 over PABPN1 (PABPN1): 5 fold and 4.6 fold
SMILES: O=c1c2ccccc2[se]n1-c1ccccc1 [Ebselen]
toxicity (effect on cell viability) (HEK-293 cells; HEK-293, 72 hours, indicated concentrations): did not show toxicity in a dose-dependent manner
reduction of cell viability (HEK-293 cells; HEK-293, at the tested doses, compared to DMSO control): roughly 40%
